Values quoted from earlier work as cited in patent US20130347140A1, “High Rebaudioside-A Plant and Methods of Producing the Same and Uses Thereof” (priority 2010, published 2013).

Details: vs sugar

SMILES | sweetness, × of sugar
C=C1C[C@@]23CC[C@H]4[C@@](C)(CCC[C@@]4(C)C(=O)O[C@@H]4O[C@H](CO)[C@@H](O)[C@H](O)[C@H]4O)[C@@H]2CC[C@]1(O[C@@H]1O[C@H](CO)[C@@H](O)[C@H](O[C@@H]2O[C@H](CO)[C@@H](O)[C@H](O)[C@H]2O)[C@H]1O[C@@H]1O[C@H](CO)[C@@H](O)[C@H](O)[C@H]1O)C3 [Rebaudioside A] | 350-450 ×
C=C1C[C@@]23CC[C@H]4[C@@](C)(CCC[C@@]4(C)C(=O)O[C@@H]4O[C@H](CO)[C@@H](O)[C@H](O)[C@H]4O)[C@@H]2CC[C@]1(O[C@@H]1O[C@H](CO)[C@@H](O)[C@H](O)[C@H]1O[C@@H]1O[C@H](CO)[C@@H](O)[C@H](O)[C@H]1O)C3 [Stevioside] | 250-300 ×
